According to DBAASP:
≈ marks a conversion by molar mass, not a printed value. One block for each compound: values may come before it.

Experiments:
Experiment in all cases: ≥ marks a high value that may be exact or a test limit, other limits are often not marked, values filed in µg/mL are converted to µM
[1] = tested on: Burkholderia cepacia J2540
[2] = tested on: Bacillus subtilis DSM 357
Bacillus subtilis L170 = tested on: Bacillus subtilis L170
[3] = tested on: Escherichia coli DH5alpha
Escherichia coli LWF+ = tested on: Escherichia coli LWF+
[4] = tested on: Enterococcus faecalis JCM 5803T
[5] = tested on: Lactiplantibacillus plantarum ATCC 14917
[6] = tested on: Latilactobacillus sakei subsp. sakei JCM 1157T
[7] = tested on: Listeria innocua ATCC 33090T
Cupriavidus necator H16 = tested on: Cupriavidus necator H16
[8] = tested on: Escherichia coli BL21(DE3)
Escherichia coli JM109 = tested on: Escherichia coli JM109
[9] = tested on: Pseudomonas putida GPp104
[10] = tested on: Aspergillus niger CECT 2694
[11] = tested on: Fusarium oxysporum f. sp. lycopersici ATCC 201829
[12] = tested on: Penicillium expansum EPS 26
[13] = tested on: Rhizopus stolonifer CECT 2344
Arthrobacter sp. = tested on: Arthrobacter sp.
Bacillus subtilis = tested on: Bacillus subtilis
Bacillus thuringiensis = tested on: Bacillus thuringiensis
Escherichia coli = tested on: Escherichia coli
Pseudomonas sp. ADP = tested on: Pseudomonas sp. ADP
Staphylococcus aureus = tested on: Staphylococcus aureus
[14] = tested on: Escherichia coli ATCC BAA-1025
[15] = tested on: Escherichia coli DSM 1103
[16] = tested on: Klebsiella pneumoniae ATCC 27736
[17] = tested on: Listeria monocytogenes ATCC 19111
[18] = tested on: Listeria monocytogenes ATCC 19112
[19] = tested on: Listeria monocytogenes ATCC 19114
[20] = tested on: Listeria monocytogenes F4244
[21] = tested on: Pseudomonas aeruginosa ATCC 47085
[22] = tested on: Pseudomonas aeruginosa DSM 1117
[23] = tested on: Staphylococcus aureus ATCC 25904
[24] = tested on: Staphylococcus aureus ATCC BAA-1717
[25] = tested on: Staphylococcus aureus DSM 1104
[26] = tested on: Staphylococcus epidermidis DSM 1798

MIC [4]: 0.3 µM (≈ 0.853 µg/mL)
MIC [6]: 0.3 µM (≈ 0.853 µg/mL)
MIC [7]: 0.59 µM (≈ 1.68 µg/mL)
Compound: CC[C@H](C)[C@H](NC(=O)CNC(=O)CNC(=O)[C@@H]1CCCN1C(=O)[C@@H](N)[C@@H](C)O)C(=O)N[C@@H](CC(=O)O)C(=O)N[C@@H](Cc1ccccc1)C(=O)N[C@H](C(=O)N[C@@H](CO)C(=O)NCC(=O)NCC(=O)N1CCC[C@H]1C(=O)N[C@@H](Cc1cnc[nH]1)C(=O)N[C@H](C(=O)N[C@@H](C)C(=O)N[C@@H](CCC(N)=O)C(=O)N[C@@H](CC(=O)O)C(=O)N[C@H](C(=O)N[C@@H](CC(C)C)C(=O)N[C@@H](CC(N)=O)C(=O)N[C@@H](C)C(=O)N[C@H](C(=O)N[C@@H](CCCCN)C(=O)N[C@@H](CC(N)=O)C(=O)N[C@@H](Cc1ccccc1)C(=O)N[C@@H](Cc1ccccc1)C(=O)N[C@@H](CCCCN)C(=O)O)[C@@H](C)CC)C(C)C)C(C)C)[C@@H](C)CC [TPGGIDFISGGPHVAQDVLNAIKNFFK]
MIC [5]: 1.2 µM (≈ 3.41 µg/mL)

MIC (Cupriavidus necator H16): ≥ 50 µM
MIC [8]: 1.25 µM (≈ 2.76 µg/mL)
MIC (Escherichia coli JM109): 10 µM (≈ 22.1 µg/mL)
MIC [9]: 12.5 µM (≈ 27.6 µg/mL)
Compound: CC[C@H](C)[C@H](NC(=O)[C@H](Cc1ccc(O)cc1)NC(=O)[C@@H](NC(=O)[C@@H]1CCCN1C(=O)[C@H](CCCN=C(N)N)NC(=O)[C@H](CC(N)=O)NC(=O)[C@H](CC(C)C)NC(=O)[C@@H](N)CCCN=C(N)N)C(C)C)C(=O)N1CCC[C@H]1C(=O)N[C@@H](CCC(N)=O)C(=O)N1CCC[C@H]1C(=O)N[C@@H](CCCN=C(N)N)C(=O)N1CCC[C@H]1C(=O)N1CCC[C@H]1C(=O)N[C@@H](Cc1cnc[nH]1)C(=O)N1CCC[C@H]1C(=O)N[C@@H](CCCN=C(N)N)C(=O)N[C@@H](CC(C)C)C(=O)O [RLNRPVYIPQPRPPHPRL]

MIC [10]: 17.3 µM (≈ 24.1 µg/mL)
MIC [11]: 1.73 µM (≈ 2.41 µg/mL)
MIC [12]: ≥ 35.4 µM
MIC [13]: ≥ 70.7 µM
Compound: CC[C@H](C)[C@H](NC(=O)[C@H](CCCCN)NC(=O)[C@H](CCCCN)NC(=O)[C@H](Cc1ccccc1)NC(=O)[C@H](CC(C)C)NC(=O)[C@H](CCCCN)NC(=O)[C@@H](N)Cc1ccc(O)cc1)C(=O)N[C@@H](CC(C)C)C(=O)N[C@@H](CCCCN)C(=O)N[C@H](C(=O)N[C@@H](CC(C)C)C(N)=O)C(C)C [YKLFKKILKVL]

The next lines start with the compound.

Compound: CC[C@H](C)[C@H](NC(=O)[C@H](CCCCN)NC(=O)[C@H](CCCCN)NC(=O)[C@H](Cc1ccccc1)NC(=O)[C@H](CC(C)C)NC(=O)[C@H](CCCCN)NC(=O)[C@H](Cc1c[nH]c2ccccc12)NC(=O)[C@@H](N)CCCCN)C(=O)N[C@@H](Cc1ccccc1)C(=O)N[C@@H](CCCCN)C(=O)N[C@@H](CCCN=C(N)N)C(=O)N[C@H](C(=O)N[C@H](C(=O)N[C@@H](CCC(N)=O)C(=O)N[C@@H](CCCN=C(N)N)C(=O)N[C@H](C(=O)N[C@@H](CCCCN)C(=O)N[C@@H](CC(=O)O)C(=O)N[C@@H](Cc1ccccc1)C(=O)N[C@@H](CC(C)C)C(=O)N[C@@H](CCCN=C(N)N)C(=O)O)[C@@H](C)CC)C(C)C)[C@@H](C)CC [KWKLFKKIFKRIVQRIKDFLR]
MIC [1]: 11.2 µM (≈ 31.3 µg/mL)

Compound: CC(C)C[C@H](NC(=O)[C@H](C)NC(=O)[C@H](CC(C)C)NC(=O)[C@H](CCCCN)NC(=O)[C@H](Cc1c[nH]c2ccccc12)NC(=O)[C@H](C)NC(=O)[C@H](CCCCN)NC(=O)[C@H](CC(C)C)NC(=O)[C@H](C)NC(=O)[C@H](CC(C)C)NC(=O)[C@H](CCCCN)NC(=O)[C@H](CC(C)C)NC(=O)[C@H](C)NC(=O)[C@H](CC(C)C)NC(=O)[C@@H](N)CCCCN)C(=O)N[C@@H](CCCCN)C(=O)N[C@@H](C)C(=O)N[C@@H](C)C(N)=O [KLALKLALKAWKLALKAA]
MIC [2]: 1.6 µM (≈ 3.12 µg/mL)
MIC (Bacillus subtilis L170): 1.6 µM (≈ 3.12 µg/mL)
MIC [3]: 5.2 µM (≈ 10.1 µg/mL)
MIC (Escherichia coli LWF+): 10 µM (≈ 19.5 µg/mL)

Compound: CC[C@H](C)[C@H](NC(=O)[C@H](CCCN=C(N)N)NC(=O)[C@H](CC(C)C)NC(=O)CN)C(=O)N[C@@H](CC(C)C)C(=O)N[C@@H](CC(C)C)C(=O)N[C@@H](CC(C)C)C(=O)N[C@@H](CCCCN)C(=O)N[C@H](C(N)=O)C(C)C [GLRILLLKV]
MIC (Arthrobacter sp.): ≥ 46.3 µM
MIC (Bacillus subtilis): 12.4 µM (≈ 12.7 µg/mL)
MIC (Bacillus thuringiensis): 30.8 µM (≈ 31.5 µg/mL)
MIC (Escherichia coli): 77.2 µM (≈ 79 µg/mL)
MIC (Pseudomonas sp. ADP): 15.4 µM (≈ 15.8 µg/mL)
MIC (Staphylococcus aureus): 3 µM (≈ 3.07 µg/mL)

Compound: CC[C@H](C)[C@H](NC(=O)[C@H](CCCCN)NC(=O)[C@@H](NC(=O)[C@H](CCC(N)=O)NC(=O)[C@@H](N)CCCNC(=N)N)[C@@H](C)CC)C(=O)N[C@@H](Cc1c[nH]c2ccccc12)C(=O)N[C@@H](Cc1ccccc1)C(=O)N[C@@H](CCC(N)=O)C(=O)N[C@@H](CC(N)=O)C(=O)N[C@@H](CCCNC(=N)N)C(=O)N[C@@H](CCCNC(=N)N)C(=O)N[C@@H](CCSC)C(=O)N[C@@H](CCCCN)C(=O)N[C@@H](Cc1c[nH]c2ccccc12)C(=O)N[C@@H](CCCCN)C(=O)N[C@@H](CCCCN)C(=O)O [RQIKIWFQNRRMKWKK]
MIC [14]: 27.8 µM (≈ 62.5 µg/mL)
MIC [15]: ≥ 51 µM
MIC [16]: ≥ 445 µM
MIC [17]: ≥ 32 µM
MIC [18]: ≥ 64 µM
MIC [19]: ≥ 64 µM
MIC [20]: ≥ 128 µM
MIC [21]: ≥ 55.6 µM
MIC [22]: ≥ 51 µM
MIC [23]: ≥ 111 µM
MIC [24]: ≥ 445 µM
MIC [25]: ≥ 51 µM
MIC [26]: 13 µM (≈ 29.2 µg/mL)
